From the NIST ThermoML archive (doi:10.1016/j.jct.2007.07.005)

Experiment: xn = mol fraction of the nth substance listed
Conditions: Fluid (supercritical or subcritical phases), vibrating tube

CCCCCO [pentan-1-ol] + O=C=O
Conditions	mass density [kg/m3]
323.05 K, 13025 kPa, x2 = 0.0816	806.04
323.05 K, 13028 kPa, x2 = 0.8067	814.77
323.05 K, 14019 kPa, x2 = 0.3624	822.92
323.05 K, 14021 kPa, x2 = 0.0816	806.82
323.05 K, 14024 kPa, x2 = 0.8067	820.63
323.05 K, 14024 kPa, x2 = 0.9757	722.69
323.05 K, 14031 kPa, x2 = 0.4651	829.31
323.05 K, 14965 kPa, x2 = 0.9757	740.5
323.05 K, 14990 kPa, x2 = 0.4651	830.68
323.05 K, 15001 kPa, x2 = 0.8067	825.93
323.05 K, 15006 kPa, x2 = 0.3624	823.89
323.05 K, 15017 kPa, x2 = 0.0816	807.57
323.05 K, 16002 kPa, x2 = 0.3624	824.89
323.05 K, 16018 kPa, x2 = 0.9757	757.4
323.05 K, 16021 kPa, x2 = 0.0816	808.32
323.05 K, 16027 kPa, x2 = 0.4651	832.14
323.05 K, 16066 kPa, x2 = 0.8067	831.24
323.05 K, 17005 kPa, x2 = 0.0816	809.07
323.05 K, 17018 kPa, x2 = 0.4651	833.51
323.05 K, 17021 kPa, x2 = 0.3624	825.87
323.05 K, 17021 kPa, x2 = 0.8067	835.7
323.05 K, 17052 kPa, x2 = 0.9757	771.8
323.05 K, 17994 kPa, x2 = 0.4651	834.85
323.05 K, 18001 kPa, x2 = 0.3624	826.81
323.05 K, 18002 kPa, x2 = 0.8067	840
323.05 K, 18028 kPa, x2 = 0.9757	783.78
323.05 K, 18049 kPa, x2 = 0.0816	809.83
323.05 K, 18975 kPa, x2 = 0.0816	810.52
323.05 K, 19012 kPa, x2 = 0.8067	844.21
323.05 K, 19034 kPa, x2 = 0.3624	827.81
323.05 K, 19035 kPa, x2 = 0.9757	794.96
323.05 K, 19057 kPa, x2 = 0.4651	836.29
323.05 K, 19998 kPa, x2 = 0.3624	828.72
323.05 K, 20002 kPa, x2 = 0.9757	804.8
323.05 K, 20009 kPa, x2 = 0.4651	837.54
323.05 K, 20044 kPa, x2 = 0.8067	848.26
323.05 K, 20047 kPa, x2 = 0.0816	811.3
323.05 K, 20997 kPa, x2 = 0.0816	811.98
323.05 K, 21033 kPa, x2 = 0.3624	829.67
323.05 K, 21034 kPa, x2 = 0.4651	838.89
323.05 K, 21046 kPa, x2 = 0.8067	851.97
323.05 K, 21049 kPa, x2 = 0.9757	814.6
323.05 K, 21991 kPa, x2 = 0.0816	812.7
323.05 K, 22013 kPa, x2 = 0.3624	830.58
323.05 K, 22017 kPa, x2 = 0.4651	840.19
323.05 K, 22017 kPa, x2 = 0.8067	855.5
323.05 K, 22020 kPa, x2 = 0.9757	823
323.05 K, 22767 kPa, x2 = 0.9757	829.12
323.05 K, 22970 kPa, x2 = 0.8067	858.77
323.05 K, 22997 kPa, x2 = 0.3624	831.49
323.05 K, 23022 kPa, x2 = 0.4651	841.47
323.05 K, 23054 kPa, x2 = 0.0816	813.46
323.05 K, 23901 kPa, x2 = 0.4651	842.61
323.05 K, 23987 kPa, x2 = 0.0816	814.12
323.05 K, 24062 kPa, x2 = 0.3624	832.47
323.05 K, 24707 kPa, x2 = 0.3624	833.04
323.05 K, 25014 kPa, x2 = 0.0816	814.87
323.06 K, 11010 kPa, x2 = 0.8573	775.4
323.06 K, 11028 kPa, x2 = 0.9216	732.55
323.06 K, 12011 kPa, x2 = 0.9216	751.44
323.06 K, 12019 kPa, x2 = 0.8573	787.14
323.06 K, 13011 kPa, x2 = 0.8573	796.54
323.06 K, 13032 kPa, x2 = 0.9216	766.64
323.06 K, 14000 kPa, x2 = 0.8573	804.66
323.06 K, 14011 kPa, x2 = 0.9216	778.82
323.06 K, 15019 kPa, x2 = 0.8573	812.19
323.06 K, 15028 kPa, x2 = 0.9216	789.81
323.06 K, 15995 kPa, x2 = 0.9216	799.06
323.06 K, 16044 kPa, x2 = 0.8573	819.03
323.06 K, 17005 kPa, x2 = 0.8573	824.92
323.06 K, 17047 kPa, x2 = 0.9216	808.18
323.06 K, 18002 kPa, x2 = 0.9216	815.71
323.06 K, 18049 kPa, x2 = 0.8573	830.83
323.06 K, 19010 kPa, x2 = 0.8573	835.97
323.06 K, 19033 kPa, x2 = 0.9216	823.28
323.06 K, 19996 kPa, x2 = 0.9216	829.83
323.06 K, 20006 kPa, x2 = 0.8573	840.95
323.06 K, 20987 kPa, x2 = 0.8573	845.64
323.06 K, 21053 kPa, x2 = 0.9216	836.6
323.06 K, 21758 kPa, x2 = 0.9216	840.85
323.06 K, 22019 kPa, x2 = 0.8573	850.27
323.06 K, 23021 kPa, x2 = 0.8573	854.64
323.06 K, 24075 kPa, x2 = 0.8573	858.97
323.08 K, 11058 kPa, x2 = 0.7274	819.26
323.08 K, 12031 kPa, x2 = 0.7274	823.11
323.08 K, 13034 kPa, x2 = 0.7274	826.85
323.08 K, 14040 kPa, x2 = 0.7274	830.38
323.08 K, 15010 kPa, x2 = 0.7274	833.59
323.08 K, 16026 kPa, x2 = 0.7274	836.83
323.08 K, 17015 kPa, x2 = 0.7274	839.83
323.08 K, 17987 kPa, x2 = 0.7274	842.68
323.08 K, 19054 kPa, x2 = 0.7274	845.68
323.08 K, 19981 kPa, x2 = 0.7274	848.2
323.08 K, 21008 kPa, x2 = 0.7274	850.93
323.08 K, 22014 kPa, x2 = 0.7274	853.5
323.08 K, 23019 kPa, x2 = 0.7274	855.98
323.08 K, 23836 kPa, x2 = 0.7274	857.96
323.11 K, 6015 kPa, x2 = 0.1347	801.54
323.11 K, 7002 kPa, x2 = 0.1347	802.41
323.11 K, 8020 kPa, x2 = 0.1347	803.27
323.11 K, 9002 kPa, x2 = 0.1347	804.12
323.11 K, 9115 kPa, x2 = 0.6054	824.57
323.11 K, 10017 kPa, x2 = 0.1347	804.97
323.11 K, 10057 kPa, x2 = 0.6054	826.64
323.11 K, 11055 kPa, x2 = 0.1347	805.83
323.11 K, 11062 kPa, x2 = 0.6054	828.82
323.11 K, 12029 kPa, x2 = 0.1347	806.64
323.11 K, 12049 kPa, x2 = 0.6054	830.92
323.11 K, 13031 kPa, x2 = 0.1347	807.47
323.11 K, 13068 kPa, x2 = 0.6054	833.05
323.11 K, 14038 kPa, x2 = 0.1347	808.26
323.11 K, 14062 kPa, x2 = 0.6054	835.02
323.11 K, 15022 kPa, x2 = 0.1347	809.05
323.11 K, 15036 kPa, x2 = 0.6054	836.96
323.11 K, 16015 kPa, x2 = 0.1347	809.84
323.11 K, 16032 kPa, x2 = 0.6054	838.86
323.11 K, 17022 kPa, x2 = 0.1347	810.64
323.11 K, 17053 kPa, x2 = 0.6054	840.77
323.11 K, 18041 kPa, x2 = 0.1347	811.39
323.11 K, 18069 kPa, x2 = 0.6054	842.62
323.11 K, 19010 kPa, x2 = 0.1347	812.15
323.11 K, 19041 kPa, x2 = 0.6054	844.36
323.11 K, 20025 kPa, x2 = 0.1347	812.91
323.11 K, 20032 kPa, x2 = 0.6054	846.09
